# Reference: PubChem BioAssay (NCI)
# Where “and” joins values, the source holds several entries; their conditions need not be identical. Equal entries are not always repeated.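 Exposure lasted 48 hours, with cells grown in 96-well plates and compounds tested at five concentrations. GI50: concentration for 50% inhibition of growth. The concentration for full growth arrest is given as TGI.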
# How the values were obtained:
# Test in all cases: NCI tumour cell line growth inhibition, 48 h
# [1] = tested on: HL-60(TB) leukemia
# [2] = tested on: MCF7 breast
# [3] = tested on: MOLT-4 leukemia
# [4] = tested on: NCI-H226 lung
# [5] = tested on: NCI-H460 lung
# [6] = tested on: NCI-H522 lung
# [7] = tested on: OVCAR-3 ovarian
# [8] = tested on: SF-295 CNS
# [9] = tested on: U251 CNS
# [10] = tested on: M14 melanoma
SMILES,TGI [1],TGI [2] [µM],TGI [3] [µM],TGI [4],TGI [5],TGI [6],TGI [7],TGI [8],TGI [9],TGI [10],GI50 [1],GI50 [10],GI50 [2] [µM],GI50 [5],GI50 [6],GI50 [7],GI50 [8] [µM],GI50 [9] [µM],GI50 [3]
O=P(NCCCO)(OCc1ccccc1)N(CCCl)CCCl (stereo not drawn),> 100 µM,> 100,> 100,> 100 µM,> 100 µM,> 100 µM,> 100 µM,> 100 µM,> 100 µM,–,–,–,–,–,–,–,–,–,–
COC(=O)c1c(O)ccc2c1c1cc3ccccc3c(O)c1n2CCc1ccc(OC)c(OC)c1,> 100 µM,> 100,> 100,> 100 µM,> 100 µM,> 100 µM,> 100 µM,> 100 µM,> 100 µM,> 100 µM,–,–,–,–,–,–,–,–,–
COc1cccc(C23CCN(C)C(CC(O)C2)C3)c1OC (stereo not drawn),> 100 µM,> 100,> 100,> 100 µM,–,> 100 µM,> 100 µM,> 100 µM,> 100 µM,> 100 µM,–,–,–,–,–,–,–,–,–
O=C(Cc1nc2ccccc2[nH]c1=O)c1c[nH]c2ccccc12,> 100 µM,> 100,> 100,31.3 µM,32.4 µM,50 µM,68 µM,35 µM,33 µM,> 100 µM,–,–,–,–,–,–,–,–,–
Nc1nc(SCC(=O)c2ccc(Br)cc2)c2[nH]cnc2n1,63.1 µM,> 100,–,> 100 µM,> 100 µM,86.5 µM,> 100 µM,> 100 µM,> 100 µM,> 100 µM,–,–,–,–,–,–,–,–,–
C/C(C=O)=C/[C@@]1(C)O[C@@H](C)[C@@](C)(O)[C@@H]1O,> 100 µM,> 100,25.7,> 100 µM,64 µM,35.5 µM,> 100 µM,> 100 µM,> 100 µM,> 100 µM,–,–,–,–,–,–,–,–,–
C#C[C@]1(O)CC[C@H]2[C@@H]3CCc4cc(O)ccc4[C@H]3CC[C@@]21C,94 µM,–,> 100,92.8 µM,82.5 µM,43.5 µM,> 100 µM,74.8 µM,–,–,–,–,–,–,–,–,–,–,–
O=C(Nc1ccccc1)Oc1ccc(C(=S)Nc2ccc(Br)cc2)cc1,30.3 µM,60.9,66.2,–,59.3 µM,29.5 µM,52.8 µM,84.3 µM,56.1 µM,–,–,–,–,–,–,–,–,–,–
CCCCCCCCCCCCCCCc1nc(=S)[nH][nH]1,> 100 µM,–,> 100,–,> 100 µM,68.2 µM,> 100 µM,–,> 100 µM,> 100 µM,–,–,–,–,–,–,–,–,–
CCOc1nc2c(N3CCCC3)nc(N3CCNCC3)nc2nc1NCc1ccccc1,2.99 µM,2.86,2.8,3.82 µM,2.91 µM,2.2 µM,2.32 µM,3.37 µM,2.39 µM,2.98 µM,–,–,–,–,–,–,–,–,–
CC1=NN(c2nc(N)nc(/C(C#N)=C\c3ccc(-c4ccc([N+](=O)[O-])cc4)o3)n2)C(C)(C)C1,94.7 µM,> 100,> 100,> 100 µM,> 100 µM,> 100 µM,> 100 µM,> 100 µM,> 100 µM,> 100 µM,–,–,–,–,–,–,–,–,–
COc1ccccc1-c1c(C#N)c(N)[nH]c(=S)c1C#N,> 100 µM,> 100,> 100,> 100 µM,> 100 µM,> 100 µM,> 100 µM,> 100 µM,> 100 µM,> 100 µM,–,–,–,–,–,–,–,–,–
Cc1ccc(-c2cc(-c3ccc(Cl)cc3)nc(/N=C3\C(=O)N(CN(C)C)c4ccccc43)n2)cc1,26.2 µM,> 100,33.5,> 100 µM,> 100 µM,69.4 µM,> 100 µM,> 100 µM,> 100 µM,> 100 µM,–,–,–,–,–,–,–,–,–
Oc1ccccc1C=Nc1ccc(-c2nc3ccccc3s2)cc1,91.2 µM,–,> 100,99.1 µM,83.5 µM,54.7 µM,88 µM,55.9 µM,> 100 µM,> 100 µM,–,–,–,–,–,–,–,–,–
COC(=O)/C=C\C(C#N)(C#N)N=Cc1ccc(OC)cc1,5.62 µM,7.44,4.39,25.3 µM,42.5 µM,2.26 µM,6.64 µM,53 µM,35.2 µM,8.77 µM,–,–,–,–,–,–,–,–,–
CC(C)CC(N)C(=O)NC(C(=O)NC(CCCNC(=N)N)C(=O)NC(CS)C(=O)NC1CSCC(C(=O)NC(Cc2ccccc2)C(=O)NC(C(=O)NC(CCCNC(=N)N)C(=O)O)C(C)C)NC(=O)C2CCCN2C(=O)C(CCCCN)NC(=O)C2CCCN2C(=O)C2CCCN2C(=O)C(Cc2ccc(O)cc2)NC(=O)C(CO)NC(=O)C(CCCCN)NC(=O)C(C(C)O)NC(=O)C(Cc2c[nH]c3ccccc23)NC1=O)C(C)C (stereo not drawn),> 25 µM,> 25,> 25,> 25 µM,–,> 25 µM,> 25 µM,> 25 µM,> 25 µM,> 25 µM,–,–,–,–,–,–,–,–,–
Cc1c(-c2ccccc2)[nH]c2cn[nH]c(=O)c12,> 100 µM,> 100,> 100,–,> 100 µM,> 100 µM,> 100 µM,> 100 µM,> 100 µM,> 100 µM,–,–,–,–,–,–,–,–,–

SMILES,TGI [1],TGI [2] [µM],TGI [3] [µM],TGI [4],TGI [5],TGI [6],TGI [7],TGI [8],TGI [9],TGI [10],GI50 [1],GI50 [10],GI50 [2] [µM],GI50 [5],GI50 [6],GI50 [7],GI50 [8] [µM],GI50 [9] [µM],GI50 [3]
CC(Oc1ccc(Cl)cc1Cl)C(=O)NN1C(=O)CC(=O)N(c2ccccc2)C1=S (stereo not drawn),5.73 µM,> 100,> 100,> 100 µM,> 100 µM,> 100 µM,> 100 µM,> 100 µM,> 100 µM,> 100 µM,–,–,–,–,–,–,–,–,–
CCc1n[nH]c(=O)n1/N=C(\C)c1ccccc1,> 100 µM,> 100,> 100,> 100 µM,–,> 100 µM,> 100 µM,> 100 µM,> 100 µM,> 100 µM,–,–,–,–,–,–,–,–,–
COc1ccc(CCn2cncn2)cc1,> 100 µM,–,> 100,> 100 µM,> 100 µM,> 100 µM,> 100 µM,> 100 µM,> 100 µM,> 100 µM,–,–,–,–,–,–,–,–,–
COC(=O)c1c(O)ccc2c1c1c(n2Cc2cc(OC)cc(OC)c2)C(=O)c2ccccc2C1=O,39.4 µM,45.3,73.3,39.3 µM,19 µM,20.9 µM,25 µM,32.7 µM,28.2 µM,26.2 µM,–,–,–,–,–,–,–,–,–
COc1ccc2nc3cc(Cl)ccc3c(NCCCN3CCN(CCCNc4ccc5nnn6c7ccccc7c(=O)c4c56)CC3)c2c1,> 18.7 µM,7.11,> 25,> 25 µM,> 25 µM,> 23.8 µM,> 25 µM,> 25 µM,> 25 µM,> 25 µM,–,–,–,–,–,–,–,–,–
CN(C)c1ccc(-c2ccc(-c3ccc(C(=N)N)cn3)o2)cc1,3.73 µM,3.52,–,–,3.05 µM,3.44 µM,3.24 µM,3.81 µM,2.91 µM,3.47 µM,1.76 µM,1.85 µM,1.61,1.35 µM,1.84 µM,1.76 µM,2,1.53,–
C=C1C(O)C2(O)OCC34C(CC5C(C)=CC(=O)C(O)C5(C)C23)OC(=O)C(OC(=O)C/C=C/CCCCCCCC)C14 (stereo not drawn),0.2 µM,–,0.533,0.029 µM,–,0.0202 µM,–,–,0.0227 µM,–,–,–,–,–,–,–,–,–,–
CN(CCc1ccccn1)c1ccc2c(c1)C(=O)c1ccccc1-2,–,> 100,–,> 100 µM,> 100 µM,> 100 µM,> 100 µM,> 100 µM,> 100 µM,> 100 µM,–,–,–,–,–,–,–,–,–
O=C1c2c(Br)sc(Br)c2[C@@H](O)[C@H]1O,28.6 µM,33,32.6,37.7 µM,31.8 µM,3.54 µM,6.25 µM,35.1 µM,20.8 µM,26.5 µM,–,–,–,–,–,–,–,–,–
N#C/C(=C(/O)CCl)c1nc2ccccc2o1,7.04 µM,8.59,10.3,5.07 µM,14.3 µM,–,20.3 µM,6.74 µM,23.8 µM,21 µM,–,–,–,–,–,–,–,–,–
Cc1ccc(-c2cn3c(nc4ccccc43)c(/C=C/c3ccco3)n2)cc1,> 100 µM,> 100,–,> 100 µM,> 100 µM,–,> 100 µM,–,> 100 µM,> 100 µM,–,–,–,–,–,–,–,–,–
COc1ccc(C2C3CCc4ccccc4C3=NN2S(=O)(=O)c2cccc(C(=O)O)c2OC)cc1 (stereo not drawn),> 100 µM,6.55,> 100,> 100 µM,> 100 µM,14.2 µM,68.6 µM,35.1 µM,34.9 µM,> 100 µM,–,–,–,–,–,–,–,–,–
O=c1c2cc(O)ccc2n2nnc3ccc(NCCNCCO)c1c32,> 42.2 µM and 13.1 µM,–,–,26.7 µM and 11.5 µM,> 57.4 µM and 23.6 µM,2.33 µM and 4.8 µM,> 86 µM and 16.3 µM,> 45.5 µM and 35.2 µM,7.43 µM and 13.3 µM,31.2 µM and 17.9 µM,6.46 µM and 1.88 µM,11.9 µM and 5.64 µM,–,28.9 µM and 4.01 µM,0.582 µM and 1.47 µM,14.8 µM and 3.75 µM,–,–,1.83 µM and 0.205 µM
CC(Oc1ccccc1Cl)C(=O)NN1C(=O)CC(=O)N(c2ccc(Cl)cc2)C1=S (stereo not drawn),8.68 µM,> 100,95.8,> 100 µM,> 100 µM,> 100 µM,> 100 µM,> 100 µM,> 100 µM,> 100 µM,–,–,–,–,–,–,–,–,–
CC(=O)c1ccc(Nc2c3ccccc3nc3occc23)cc1,< 0.01 µM,< 0.128,32.2,45.2 µM,0.453 µM,< 0.01 µM,–,–,> 4.64 µM,2.92 µM,–,–,–,–,–,–,–,–,–
COc1cc(C2S/C(=C/c3ccccc3)C(=O)N2c2cccc(NC(C)=O)c2)cc(OC)c1OC (stereo not drawn),–,> 100,> 100,> 100 µM,–,47.1 µM,–,> 100 µM,50.8 µM,> 100 µM,–,–,–,–,–,–,–,–,–
